# In patent US6652890B2, “Tea catechins as cancer specific proliferation inhibitors” (Purdue Research Foundation, priority 1999, dated 2003):
# Where “and” joins values, the source holds several entries; their conditions need not be identical. Equal values may be shown once. Read-outs that look alike come from different tables or passages of the source.
# Key:
# [1] = molecular target: T1, tNOX activity of intact 4T1 mouse mammary cells (Mus musculus, UniProt Q8R0Z2); experiment: Inhibition of tNOX (NADH oxidase) activity of intact 4T1 cells; assay type: cell-based
# T1 construct: endogenous in cells; host or cells: 4T1 mouse mammary carcinoma cells (intact)
# T1 sequence (Q8R0Z2 1-598): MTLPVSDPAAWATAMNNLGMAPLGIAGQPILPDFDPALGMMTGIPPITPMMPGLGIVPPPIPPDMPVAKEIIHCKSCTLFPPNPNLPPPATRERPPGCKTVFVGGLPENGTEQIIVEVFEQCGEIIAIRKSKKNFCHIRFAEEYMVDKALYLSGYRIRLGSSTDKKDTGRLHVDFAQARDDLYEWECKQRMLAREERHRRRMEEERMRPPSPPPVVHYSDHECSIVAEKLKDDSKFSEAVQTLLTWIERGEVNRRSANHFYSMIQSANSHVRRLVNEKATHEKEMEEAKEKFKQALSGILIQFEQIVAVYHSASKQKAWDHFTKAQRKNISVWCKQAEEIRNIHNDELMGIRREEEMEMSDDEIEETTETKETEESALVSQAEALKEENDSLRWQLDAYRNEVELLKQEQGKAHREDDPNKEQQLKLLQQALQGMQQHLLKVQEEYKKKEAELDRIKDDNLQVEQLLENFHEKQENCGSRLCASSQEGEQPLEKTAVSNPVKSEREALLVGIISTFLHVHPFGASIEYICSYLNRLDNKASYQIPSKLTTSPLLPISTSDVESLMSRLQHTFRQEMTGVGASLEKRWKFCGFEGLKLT
# Protocol: (§1) A mouse mammary tumor subpopulation line 4T1 arising from a BALB/cf C3H mouse was grown in DME-10, Dulbecco's modified Eagle's medium supplemented with 5% fetal calf serum, 5% newborn calf serum, 1 mM mixed non-essential amino acids, 2 mM L-glutamine, penicillin (100 units/ml), and streptomycin (100 μg/ml) (Miller et al., 1987, Brit. J. Can. 56:561-569 and Miller et al., 1990, Invasion Metastasis 10:101-112).
# NADH oxidase activity was determined as the disappearance of NADH measured at 340 nm in a reaction mixture containing 25 mM Tris-Mes buffer (pH 7.2), 1 mM KCN, and 150 μM NADH at 37° C. Activity was measured using a Hitachi U3210 spectrophotometer with stirring and continuous recording over two intervals of 5 min each. A millimolar extinction coefficient of 6.22 was used to determine specific activity.
# (§2) NADH oxidase activity was determined as the disappearance of NADH measured at 340 nm in a reaction mixture containing 25 mM Tris-Mes buffer (pH 7.2), 1 mM KCN, and 150 μM NADH at 37° C. Activity was measured at 340 nm with reference at 430 nm using an SLM Aminco DW-2000 spectrophotometer (Milton Roy, Rochester, N.Y.) in the dual beam mode of operation with stirring and continuous recording over two intervals of 5 min each. A millimolar extinction coefficient of 6.22 was used to determine specific activity.
# [2] = tested on: tNOX; experiment: Inhibition of tNOX activity of sera pooled from patients with cancer; assay type: biochemical, human
# Protocol: NADH oxidase activity was determined as the disappearance of NADH measured at 340 nm in a reaction mixture containing 25 mM Tris-Mes buffer (pH 7.2), 1 mM KCN to inhibit low levels of mitochondrial oxidase activity, and […] at 37° C. with stirring. Activity was measured using a Hitachi U3210 or SLM Aminco DW2000 spectrophotometer with continuous recording over two intervals of 5 min each. A millimolar extinction coefficient of 6.22 was used to determine specific activity.
# Authentic EGCg (Sigma) was used as the standard.
# All chemicals were from Sigma (St. Louis, Mo.) unless otherwise specified. EGF was from mouse, culture grade, from Upstate Biotechnology Inc. (Lake Placid, N.Y.). Tea infusions were prepared by sequential steeping of ca. 2-g bags of tea (Lipton) in 10 ml of water for 10 min each. At the end of the infusion, bags were pressed to remove liquid.
# [3] = molecular target: T2, CNOX (Mus musculus, UniProt Q8BHR2); experiment: CNOX activity of intact 4T1 cells; assay type: cell-based; details: not effective up to and including this concentration
# T2 construct: endogenous in cells; host or cells: 4T1 mouse mammary carcinoma cells (intact)
# T2 sequence (Q8BHR2 1-643): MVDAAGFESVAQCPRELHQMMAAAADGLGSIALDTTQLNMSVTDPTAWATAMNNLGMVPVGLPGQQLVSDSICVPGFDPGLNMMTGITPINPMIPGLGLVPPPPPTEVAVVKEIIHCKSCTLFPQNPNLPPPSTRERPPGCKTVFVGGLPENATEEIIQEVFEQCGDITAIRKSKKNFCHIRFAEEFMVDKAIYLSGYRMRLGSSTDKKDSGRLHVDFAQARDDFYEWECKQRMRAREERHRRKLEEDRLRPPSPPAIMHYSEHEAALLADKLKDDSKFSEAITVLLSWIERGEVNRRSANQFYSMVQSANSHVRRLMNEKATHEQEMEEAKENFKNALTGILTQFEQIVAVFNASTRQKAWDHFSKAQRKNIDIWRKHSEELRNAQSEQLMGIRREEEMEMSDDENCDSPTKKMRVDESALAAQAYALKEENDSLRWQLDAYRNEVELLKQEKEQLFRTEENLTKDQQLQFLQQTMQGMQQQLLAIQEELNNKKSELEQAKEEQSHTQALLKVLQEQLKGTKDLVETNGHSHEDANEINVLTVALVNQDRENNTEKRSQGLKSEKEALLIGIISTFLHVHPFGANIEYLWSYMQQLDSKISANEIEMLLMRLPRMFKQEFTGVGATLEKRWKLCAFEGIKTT
# Protocol: as §1, §2
# [4] = tested on: CHO cells; experiment: Growth of CHO cells; assay type: cell-based; details: EGCg
substance,measurement,setting,value
(−) - epigallocatechin gallate [EGCg],"tNOX inhibition by EGCg, EC>90",[1]; EC concentration 0 M,10^−7 M
same,"tNOX inhibition by EGCg, EC>90",[1]; EC concentration 10^−4 M,10^−8 M
same,"tNOX inhibition by EGCg, EC>90",[1]; EC concentration 10^−6 M,10^−8 M
same,"tNOX inhibition by EGCg, EC>90",[1]; EC concentration 10^−8 M,10^−7 M
same,EC50,"[1]; in the presence of 10^−4 M EC, read-out: EC50 for inhibition of the drug-responsive component of the plasma membrane NADH oxidase",2 nM
same,EC50,"[1]; read-out: tNOX inhibition by EGCg, EC50, EC concentration 0 M",~10 nM and 10 nM
same,EC50,"[1]; read-out: tNOX inhibition by EGCg, EC50, EC concentration 10^−4 M",0.5 nM
same,EC50,"[1]; read-out: tNOX inhibition by EGCg, EC50, EC concentration 10^−6 M",1 nM
same,EC50,"[1]; read-out: tNOX inhibition by EGCg, EC50, EC concentration 10^−8 M",10 nM
same,Enhancement of the efficacy of EGCg inhibition,[1]; with both 10^−6 and 10^−4 M EC,≥ 10 fold
same,EC50,[2],2000 nM
same,EGCg,[2]; EGCg content at the EC50,1 µg/mL
same,Concentration effective in inhibiting the residual CNOX activity,[3],> 10^−6 M
same,Growth of CHO cells,[4],much less affected
